The values below are quoted from earlier work in patent US20220175673A1, “SURGICAL DEVICE” (Saint Anthony Biomedical, LLC, priority 2017, published 2022).

Structures are written as SMILES.

The subject of this data set is Bacteroides, Propionibacterium, Clostridium deficile, Selenomonas. The conditions noted are these: some strains.

As for `[H]/N=C(\N/C(=N/[H])NCCCCCCNC(=N)NC(=N)Nc1ccc(Cl)cc1)Nc1ccc(Cl)cc1` [Chlorhexidine, chlorhexidine], the activity result is on record as “active against some strains”.
